Measurements: patent US8969325B2, “TRPV1 antagonists” (AbbVie Inc., priority 2011, dated 2015)

Columns and labels:
human TRPV1 [1] = target: T1, human TRPV1 (Homo sapiens (Human), UniProt Q8NER1); experiment: Capsaicin Activation Assay (intracellular Ca2+, FLIPR); type: cell-based; settings: recombinant HEK293 cells expressing hTRPV1, 50 nM capsaicin
Outline: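 Ca2+ fluorescence was recorded by FLIPR every 1 to 5 seconds in HEK293 cells, clonally selected for stable human TRPV1 expression and plated one day ahead. Test compounds came as serial dilutions of 10 mM DMSO stocks.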

human TRPV1 [2] = target: T1, human TRPV1; experiment: Acid Activation Assay (pH 5.0, intracellular Ca2+, FLIPR); type: cell-based; settings: percentage of the maximal pH 5.0-induced response remaining; recombinant HEK293 hTRPV1 cells; maximum concentration tested 37.5 μM
Outline: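 Readout: peak [Ca2+]i fluorescence over baseline on FLIPR, expressed as percentage remaining of the maximal pH 5.0-evoked signal. Stable hTRPV1-HEK293 cells with Calcium-4 dye received compound (12 half-log concentrations, maximum 37.5 μM) 3 min before acidic pH 5.0 buffer.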

T1 sequence (Q8NER1 whole entry): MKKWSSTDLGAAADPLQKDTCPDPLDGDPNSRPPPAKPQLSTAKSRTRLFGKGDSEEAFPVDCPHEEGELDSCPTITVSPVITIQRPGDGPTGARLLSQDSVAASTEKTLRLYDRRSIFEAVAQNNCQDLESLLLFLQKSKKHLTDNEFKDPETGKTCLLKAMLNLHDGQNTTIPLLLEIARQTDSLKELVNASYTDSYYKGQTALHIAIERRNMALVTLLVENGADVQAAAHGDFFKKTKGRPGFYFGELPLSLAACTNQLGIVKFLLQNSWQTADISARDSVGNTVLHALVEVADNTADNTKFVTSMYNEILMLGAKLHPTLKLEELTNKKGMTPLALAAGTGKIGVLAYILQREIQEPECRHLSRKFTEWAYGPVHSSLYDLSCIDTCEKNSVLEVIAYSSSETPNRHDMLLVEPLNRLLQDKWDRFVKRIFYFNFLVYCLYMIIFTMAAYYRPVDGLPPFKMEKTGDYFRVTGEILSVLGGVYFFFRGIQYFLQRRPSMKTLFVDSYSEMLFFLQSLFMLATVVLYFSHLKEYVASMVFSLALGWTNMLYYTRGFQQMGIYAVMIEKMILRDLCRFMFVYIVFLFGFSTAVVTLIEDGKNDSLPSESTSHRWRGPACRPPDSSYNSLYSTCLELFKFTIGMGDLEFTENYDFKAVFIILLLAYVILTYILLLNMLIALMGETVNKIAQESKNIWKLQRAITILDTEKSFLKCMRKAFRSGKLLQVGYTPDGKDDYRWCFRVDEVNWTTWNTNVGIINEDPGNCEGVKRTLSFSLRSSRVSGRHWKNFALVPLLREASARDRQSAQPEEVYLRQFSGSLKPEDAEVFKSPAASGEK

Compound | IC50 (human TRPV1 [1]) [nM] | human TRPV1 H^+ (max % remain) (human TRPV1 [2]) [%]
C[C@H]1Oc2c(NC(=O)N[C@@H]3CC(CF)(CF)Oc4cc(Cl)ccc43)cccc2NC1=O [Example 134, 1-[(4R)-7-chloro-2,2-bis(fluoromethyl)-3,4-dihydro-2H-chromen-4-yl]-3-[(2R)-2-methyl-3-oxo-3,4-dihydro-2H-1,4-benzoxazin-8-yl]urea] | 8 | 0
CN1C(=O)NCc2c(NC(=O)N[C@@H]3CC(C)(C)Oc4c(F)cccc43)cccc21 [Example 135, 1-[(4R)-8-fluoro-2,2-dimethyl-3,4-dihydro-2H-chromen-4-yl]-3-(1-methyl-2-oxo-1,2,3,4-tetrahydroquinazolin-5-yl)urea] | 31 | 32
CN1C(=O)NCc2c(NC(=O)N[C@@H]3CC(C)(C(F)F)Oc4cc(Cl)ccc43)cccc21 (stereo partly drawn) [Example 136, 1-[(4R)-7-chloro-2-(difluoromethyl)-2-methyl-3,4-dihydro-2H-chromen-4-yl]-3-(1-methyl-2-oxo-1,2,3,4-tetrahydroquinazolin-5-yl)urea] | 23 | 26
CN1C(=O)NCc2c(NC(=O)N[C@@H]3CCc4cc(C(C)(C)C)ccc43)cccc21 [Example 141, 1-[(1R)-5-tert-butyl-2,3-dihydro-1H-inden-1-yl]-3-(1-methyl-2-oxo-1,2,3,4-tetrahydroquinazolin-5-yl)urea] | 28 | 8
CN1C(=O)NCc2c(NC(=O)N[C@@H]3CCOc4c3cccc4C(C)(C)C)cccc21 [Example 142, 1-[(4R)-8-tert-butyl-3,4-dihydro-2H-chromen-4-yl]-3-(1-methyl-2-oxo-1,2,3,4-tetrahydroquinazolin-5-yl)urea] | 110 | 18
CN1C(=O)NCc2c(NC(=O)N[C@@H]3CC(CF)(CF)Oc4c(Cl)cccc43)cccc21 [Example 148, 1-[(4R)-8-chloro-2,2-bis(fluoromethyl)-3,4-dihydro-2H-chromen-4-yl]-3-(1-methyl-2-oxo-1,2,3,4-tetrahydroquinazolin-5-yl)urea] | 100 | 33
CN1C(=O)NCc2c(NC(=O)N[C@@H]3CC(CF)(CF)Oc4c(F)cc(F)cc43)cccc21 [Example 153, 1-[(4R)-6,8-difluoro-2,2-bis(fluoromethyl)-3,4-dihydro-2H-chromen-4-yl]-3-(1-methyl-2-oxo-1,2,3,4-tetrahydroquinazolin-5-yl)urea] | 170 | 23
CN1C(=O)NCc2c(NC(=O)N[C@@H]3CC4(CCC4)Oc4ccc(F)cc43)cccc21 [Example 154, 1-[(4R)-6-fluoro-3,4-dihydrospiro[chromene-2,1′-cyclobutan]-4-yl]-3-(1-methyl-2-oxo-1,2,3,4-tetrahydroquinazolin-5-yl)urea] | 15 | 20
CCCC1(CCC)C[C@@H](NC(=O)Nc2cccc3c2CNC(=O)N3C)c2cccc(F)c2O1 [Example 156, 1-[(4R)-8-fluoro-2,2-dipropyl-3,4-dihydro-2H-chromen-4-yl]-3-(1-methyl-2-oxo-1,2,3,4-tetrahydroquinazolin-5-yl)urea] | 190 | 67
CN1C(=O)NCc2c(NC(=O)N[C@@H]3CC(C)(C)Oc4ccc(F)cc43)cccc21 [Example 157, 1-[(4R)-6-fluoro-2,2-dimethyl-3,4-dihydro-2H-chromen-4-yl]-3-(1-methyl-2-oxo-1,2,3,4-tetrahydroquinazolin-5-yl)urea] | 47 | 36
CN1C(=O)NCc2c(NC(=O)N[C@@H]3CCOc4cc(F)ccc43)cccc21 [Example 159, 1-[(4R)-7-fluoro-3,4-dihydro-2H-chromen-4-yl]-3-(1-methyl-2-oxo-1,2,3,4-tetrahydroquinazolin-5-yl)urea] | 600 | 21
CN1C(=O)NCc2c(NC(=O)NC3COc4cc(Cl)ccc4C3)cccc21 (stereo not drawn) [Example 161, 1-(7-chloro-3,4-dihydro-2H-chromen-3-yl)-3-(1-methyl-2-oxo-1,2,3,4-tetrahydroquinazolin-5-yl)urea] | 95 | 9
CCN1C(=O)NCc2c(NC(=O)N[C@@H]3CC(CF)(CF)Oc4cc(Cl)ccc43)cccc21 [Example 162, 1-[(4R)-7-chloro-2,2-bis(fluoromethyl)-3,4-dihydro-2H-chromen-4-yl]-3-(1-ethyl-2-oxo-1,2,3,4-tetrahydroquinazolin-5-yl)urea] | 130 | 0
CN1C(=O)NCc2c(NC(=O)N[C@@H]3C[C@](C)(CF)Oc4ccccc43)cccc21 [Example 163, 1-[(2R,4R)-2-(fluoromethyl)-2-methyl-3,4-dihydro-2H-chromen-4-yl]-3-(1-methyl-2-oxo-1,2,3,4-tetrahydroquinazolin-5-yl)urea] | 220 | 33
CN1C(=O)NCc2c(NC(=O)N[C@@H]3C[C@@](C)(CF)Oc4ccccc43)cccc21 [Example 164, 1-[(2S,4R)-2-(fluoromethyl)-2-methyl-3,4-dihydro-2H-chromen-4-yl]-3-(1-methyl-2-oxo-1,2,3,4-tetrahydroquinazolin-5-yl)urea] | 120 | 35

Continued, values first:

IC50 (human TRPV1 [1]) [nM] | human TRPV1 H^+ (max % remain) (human TRPV1 [2]) [%] | Compound
38 | 17 | CN1C(=O)NCc2c(NC(=O)N[C@@H]3CC(C)(C)Oc4cc(OC(F)(F)F)ccc43)cccc21 [Example 137, 1-[(4R)-2,2-dimethyl-7-(trifluoromethoxy)-3,4-dihydro-2H-chromen-4-yl]-3-(1-methyl-2-oxo-1,2,3,4-tetrahydroquinazolin-5-yl)urea]
12 | 27 | CCC1(CC)C[C@@H](NC(=O)Nc2cccc3c2CNC(=O)N3C)c2cccc(F)c2O1 [Example 139, 1-[(4R)-2,2-diethyl-8-fluoro-3,4-dihydro-2H-chromen-4-yl]-3-(1-methyl-2-oxo-1,2,3,4-tetrahydroquinazolin-5-yl)urea]
11 | 27 | CCC1(CC)C[C@@H](NC(=O)Nc2cccc3c2CNC(=O)N3C)c2ccccc2O1 [Example 140, 1-[(4R)-2,2-diethyl-3,4-dihydro-2H-chromen-4-yl]-3-(1-methyl-2-oxo-1,2,3,4-tetrahydroquinazolin-5-yl)urea]
130 | 5 | CCC1(CC)C[C@@H](NC(=O)Nc2cccc3c2CNC(=O)N3C)c2ccc(C(F)(F)F)cc2O1 [Example 144, 1-[(4R)-2,2-diethyl-7-(trifluoromethyl)-3,4-dihydro-2H-chromen-4-yl]-3-(1-methyl-2-oxo-1,2,3,4-tetrahydroquinazolin-5-yl)urea]
38 | 15 | CN1C(=O)NCc2c(NC(=O)N[C@@H]3CC(CF)(CF)Oc4cc(C(F)(F)F)ccc43)cccc21 [Example 146, 1-[(4R)-2,2-bis(fluoromethyl)-7-(trifluoromethyl)-3,4-dihydro-2H-chromen-4-yl]-3-(1-methyl-2-oxo-1,2,3,4-tetrahydroquinazolin-5-yl)urea]
600 | 15 | CCC1(CC)C[C@@H](NC(=O)Nc2cccc3c2CNC(=O)N3C)c2ccc(Cl)c(Cl)c2O1 [Example 147, 1-[(4R)-7,8-dichloro-2,2-diethyl-3,4-dihydro-2H-chromen-4-yl]-3-(1-methyl-2-oxo-1,2,3,4-tetrahydroquinazolin-5-yl)urea]
120 | 16 | CN1C(=O)NCc2c(NC(=O)N[C@@H]3CC(CF)(CF)Oc4cc(OC(F)(F)F)ccc43)cccc21 [Example 149, 1-[(4R)-2,2-bis(fluoromethyl)-7-(trifluoromethoxy)-3,4-dihydro-2H-chromen-4-yl]-3-(1-methyl-2-oxo-1,2,3,4-tetrahydroquinazolin-5-yl)urea]
16 | 20 | CN1C(=O)NCc2c(NC(=O)N[C@@H]3CC(C)(C)Oc4cc(C(F)(F)F)ccc43)cccc21 [Example 150, 1-[(4R)-2,2-dimethyl-7-(trifluoromethyl)-3,4-dihydro-2H-chromen-4-yl]-3-(1-methyl-2-oxo-1,2,3,4-tetrahydroquinazolin-5-yl)urea]
170 | 53 | CCCC1(CCC)C[C@@H](NC(=O)Nc2cccc3c2CNC(=O)N3C)c2cc(F)ccc2O1 [Example 151, 1-[(4R)-6-fluoro-2,2-dipropyl-3,4-dihydro-2H-chromen-4-yl]-3-(1-methyl-2-oxo-1,2,3,4-tetrahydroquinazolin-5-yl)urea]
470 | 22 | CN1C(=O)NCc2c(NC(=O)N[C@@H]3CC(CF)(CF)Oc4ccc(F)cc43)cccc21 [Example 152, 1-[(4R)-6-fluoro-2,2-bis(fluoromethyl)-3,4-dihydro-2H-chromen-4-yl]-3-(1-methyl-2-oxo-1,2,3,4-tetrahydroquinazolin-5-yl)urea]
16 | 20 | CCC1(CC)C[C@@H](NC(=O)Nc2cccc3c2CNC(=O)N3C)c2cc(F)ccc2O1 [Example 155, 1-[(4R)-2,2-diethyl-6-fluoro-3,4-dihydro-2H-chromen-4-yl]-3-(1-methyl-2-oxo-1,2,3,4-tetrahydroquinazolin-5-yl)urea]
42 | 23 | CN1C(=O)NCc2c(NC(=O)N[C@@H]3CCOc4cc(C(F)(F)F)ccc43)cccc21 [Example 160, 1-(1-methyl-2-oxo-1,2,3,4-tetrahydroquinazolin-5-yl)-3-[(4R)-7-(trifluoromethyl)-3,4-dihydro-2H-chromen-4-yl]urea]
